From patent publication US20120329738A1, “Water Soluble Drug-Solubilizer Powders and Their Uses” (priority 2009, published 2012)
pIC50: −log10 of the molar value. Converted amounts (≈) assume the structure as drawn. “And” between values parts separate entries of the source, which are not always exact repeats. Equal entries are not always repeated. Where two headings read alike, the source gives them in different places. Each block holds one compound with its values, some of them ahead of it.

Legend:
[1] = system: human pancreatic cancer cells (PANC-1); experiment: Growth inhibition of PANC-1 cells by re-constituted curcumin water solution; assay type: cell-based
Procedure: The pH-adjusted water solution was then co-cultured with human pancreatic cancer cells (PANC-1) for 72 hours in a standard cell culture medium. […] All culture materials were purchased from Invitrogen Corporation (Carlsbad, Calif.). […] (FIG. 14).

[2] = for Curcumin content of reconstituted solution: 100 mg in 10 mL water
Procedure: The water solutions containing the complexes of the water-insoluble compound and the solubilizer were dried to remove the water and to form a powder. […] Any method of water removal could be used, including freeze-drying, spray-drying, or oven drying. […] The amount of added water can be adjusted to achieve the desired concentration of the compound.
The 30% and 40% curcumin-rubusoside water solution (10 mL) were freeze-dried to powder. […] Part of this powder (100 mg) was re-constituted in 10 mL water. […] (FIG. 13) Similarly, the 30% curcumin-rebusoside solution was freeze-dried to powder, and 100 mg powder reconstituted with 10 mL water.
The powder was reconstituted using 1 ml, 0.5 ml, 0.25 ml or 0.1 ml water, followed by 60 min sonication and a brief vortex. […] Paclitaxel concentrations were determined using a standard paclitaxel calibration curve with paclitaxel standard in methanol. […] (FIG. 15).

[3] = system: human pancreatic cancer cells (PANC-1); conditions: literature value; read-out: IC50 for Panc-1 reported by Holcomb et al.; cited from earlier work
[4] = Concentration of curcumin dissolved in rebaudioside A water solution, HPLC; assay type: physicochemical; conditions: 5% w/v rebaudioside A
Description: A new method (the “Sonication—autoclave method”) was used to solublize most of the compounds, a method different from that reported in International Patent Application No. PCT/US2009/040324 (the “Standard Shake Flask method”). The main difference was the use of higher temperatures and elevated atmospheric pressures. The steps of the new enhanced process are as follows. A water-insoluble compound was weighed into multiple flasks, divided into two groups—a control group and an experimental group. Each experimental flask received a known amount of the solubilizing agent, e.g. rubusoside, being tested. The control flasks contained only the water-insoluble compound. The same volume, 10 mL, unless otherwise indicated, of deionized and distilled water was added to each flask. Alternatively, water solutions containing a known percentage of solubilizer (e.g., 5% or 10% w/v) were prepared. The solubilizer-water solutions were added directly to the experimental flasks containing the water-insoluble compound. In either case, the flasks were then vortexed briefly and sonicated for 60 min at 50° C. Sonication is a process of applying sound (usually ultrasound) energy to agitate particles in a sample. Using this energy, inter-molecular interactions are facilitated. After sonication, the solution was then subjected to heat and pressure. […] The supernatant solution was passed through a 0.45 μm filter and analyzed for the concentration of the water-insoluble compound or solubilizer by HPLC or LC/MS, as described below.
To test if the enhanced process also applies to another solubilizing agent, rebuadioside A was used. […] The water solutions were filtered by 0.45 μM filters and analyzed on HPLC. Quantification was done by comparing to a standard solution of a known amount of curcumin in methanol. […] Curcumin concentration was determined using a standard curcumin solution of 196.8 μg/mL. […]

[5] = Stability of curcumin-rubusoside water solutions (dilution with water, storage, pH); assay type: physicochemical
Procedure: This is important because the concentrated curcumin solution may be diluted in a biological system, e.g., in the stomach fluid.
Various concentrations of the solubilizer rubusoside were prepared in water: 0%, 1%, 2.5%, 5%, 10%, 20%, 30%, and 40% w/v. Curcumin (100 mg) was weighed and added into separate flasks, and an equal amount (10 ml) of a rubusoside solution was added to each flask. The prepared water solutions were vortexed briefly and then sonicated for 60 min at temperature of 50° C. These water solutions were subjected to a heat and pressure treatment composed of 121° C. and 1.1 to 1.2 atm for 60 min, and then placed in an incubator set at 25° C. for at least 24 hr. The solutions were then centrifuged at 4000 rpm for 10 min. The supernatant solution was passed through a 0.45 μm filter and analyzed for the concentration of either the water-insoluble compound or rubusoside by HPLC or LC/MS, as described above in Example 2. Quantification was done by comparing to a standard solution of a known amount in methanol. In the presence of 0%, 1%, 2.5%, 5%, 10%, 20%, 30%, and 40% w/v of rubusoside, the water solutions contained 0, 28, 267, 762, 1330, 2914, 4449, and 6004 μg/mL curcumin, respectively. […] When adjusted to about pH 7.0 by the addition of 1× phosphate buffered saline (PBS) powder, the solutions remained stable for at least 48 hours. Thus the reconstituted solution with saline would be sufficiently stable at pH 7.0 for use in a clinic setting.

P-gp = biological target: T1, P-gp (Homo sapiens, UniProt P08183); experiment: P-gp inhibition in Caco-2 assay with digoxin probe substrate; assay type: in vitro ADME; conditions: Caco-2 cell monolayers, probe digoxin 5 µM, test conc 1 mg/mL (1.558 mM), 5 μM digoxin
T1 construct: endogenous in cells; host or cells: Caco-2 (ATCC), differentiated for three weeks on collagen-coated inserts

[6] = Solubility in water without solubilizer; assay type: physicochemical
[7] = room temperature; The Merck Index, 1996; cited from earlier work
physchem = conditions: 25 °C, aqueous with cosolvent or surfactant or cyclodextrin, thermodynamic from solid
in vitro = conditions: human, Caco-2
Description: Human epithelial colorectal adenocarcinoma cell line (Caco-2) was obtained from the American Type Culture Collection (ATCC), and cultured according to directions. Caco-2 cells grown in tissue culture flasks were trypsinized, suspended in medium, and the suspensions were applied to wells of a collagen-coated BioCoat Cell Environment in 24-well format (BD Biosciences) at 24,500 cells per well. The cells were allowed to grow and differentiate for three weeks, feeding at 2-day intervals. […] For Apical to Basolateral (A->B) permeability, the test agent (1 mg/mL)+probe substrate were added to the apical (A) side, test agent was added to the Basolateral (B) side, and amount of permeation was determined on the B side. For Basolateral to Apical (B>A) permeability, the test agent+probe substrate were added to the B side, test agent was added to the A side, and the amount of permeation of probe substrate was determined on the A side. Buffer alone, without test agent, was used as a negative control. […] Dosing solutions were prepared by dissolving the test agent in Transport buffer, then adding Lucifer yellow to a portion as indicated. CaCo-2 cells were incubated with these buffers for 2 h., and the receiver side buffer is removed for analysis by LC/MS/MS.
To verify the CaCo-2 cell monolayers were properly formed, aliquots of the cell buffers were analyzed by fluorescence to determine the transport of the impermeable dye Lucifer Yellow.
Where dQ/dt is the rate of permeation, C0 is the initial concentration of test agent, and A is the area of the monolayer.
From bidirectional permeability studies, the efflux ration (RE) is also calculated:
The P-gp inhibition data were calculated from the permeability results for the probe substrate as indicated. Ranitidine (low permeability) and warfarin (high permeability) are included as controls to ensure the proper performance of the test system.

T1 sequence (P08183 whole entry): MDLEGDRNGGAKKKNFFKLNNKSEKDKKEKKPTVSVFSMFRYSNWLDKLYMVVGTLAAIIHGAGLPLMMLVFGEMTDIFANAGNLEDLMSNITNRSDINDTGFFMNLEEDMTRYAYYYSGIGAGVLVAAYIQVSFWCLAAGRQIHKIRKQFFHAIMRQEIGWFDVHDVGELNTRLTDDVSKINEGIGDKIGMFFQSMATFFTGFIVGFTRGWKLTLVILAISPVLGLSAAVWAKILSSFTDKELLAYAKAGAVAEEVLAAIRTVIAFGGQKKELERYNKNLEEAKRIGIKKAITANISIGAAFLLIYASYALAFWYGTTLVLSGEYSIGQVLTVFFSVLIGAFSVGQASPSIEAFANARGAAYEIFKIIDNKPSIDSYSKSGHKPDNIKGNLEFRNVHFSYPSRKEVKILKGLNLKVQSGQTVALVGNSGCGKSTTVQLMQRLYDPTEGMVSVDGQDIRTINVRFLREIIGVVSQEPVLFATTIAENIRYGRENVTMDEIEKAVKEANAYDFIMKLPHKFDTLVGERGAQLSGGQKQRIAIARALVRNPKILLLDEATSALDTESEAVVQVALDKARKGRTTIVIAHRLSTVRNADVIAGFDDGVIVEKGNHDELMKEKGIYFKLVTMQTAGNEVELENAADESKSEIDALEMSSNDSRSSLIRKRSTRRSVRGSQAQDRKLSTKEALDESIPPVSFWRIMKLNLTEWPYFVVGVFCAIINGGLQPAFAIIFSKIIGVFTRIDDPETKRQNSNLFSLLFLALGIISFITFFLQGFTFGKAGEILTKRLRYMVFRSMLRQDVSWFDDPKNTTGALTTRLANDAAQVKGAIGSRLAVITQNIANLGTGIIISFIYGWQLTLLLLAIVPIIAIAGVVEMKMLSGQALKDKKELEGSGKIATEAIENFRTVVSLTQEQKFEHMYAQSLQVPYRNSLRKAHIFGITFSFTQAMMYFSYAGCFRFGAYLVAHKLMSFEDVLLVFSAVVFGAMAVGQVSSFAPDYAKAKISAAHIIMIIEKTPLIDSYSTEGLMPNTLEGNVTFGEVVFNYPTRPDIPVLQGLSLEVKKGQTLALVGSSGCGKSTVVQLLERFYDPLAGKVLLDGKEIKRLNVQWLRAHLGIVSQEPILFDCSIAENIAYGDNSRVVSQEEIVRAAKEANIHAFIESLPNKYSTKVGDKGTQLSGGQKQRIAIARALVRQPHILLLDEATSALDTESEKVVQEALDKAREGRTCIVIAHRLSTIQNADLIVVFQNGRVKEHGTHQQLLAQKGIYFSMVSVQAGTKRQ

Compound: O=C(O)c1cc(O)c(O)c(O)c1 [Gallic acid]
- Solubility in water [7]: about 11 mg/ml

Compound: CC[C@@]1(O)C(=O)OCc2c1cc1n(c2=O)Cc2cc3ccccc3nc2-1 [camptothecin]
- Fold increase, enhanced vs standard process (10% w/v rubusoside): more than 3 fold
- Concentration in water solution (10% w/v rubusoside, enhanced process (Sonication-Autoclave)): 247 µg/mL
- Concentration in water solution (10% w/v rubusoside, standard process (Shake-flask)): 80 µg/mL

Compound: C=C1CC[C@H](O)C/C1=C/C=C1\CCC[C@]2(C)[C@@H]([C@H](C)CCCC(C)C)CC[C@@H]12 [vitamin D3, cholecalciferol]
- solubility (physchem): 4.5 mg/mL (≈ 11.7 mM)
- Concentration in re-composed single water solution (mixed vitamins A, D, E, K in 10% rubusoside): 4.7 µg/mL

Compound: CC(=O)CC(c1ccccc1)c1c(O)c2ccccc2oc1=O (stereo not shown) [Warfarin, warfarin]
- Papp A→B at 2 h, 10 μM (in vitro): 33.5 ×10⁻⁶ cm/s

Compound: CNC(=C[N+](=O)[O-])NCCSCc1ccc(CN(C)C)o1 [Ranitidine]
- Papp A→B at 2 h, 10 μM (in vitro): 1.7 ×10⁻⁶ cm/s

Compound: Oc1ccc(C=Cc2cc(O)cc(O)c2)cc1 [resveratrol]
- Reconstitution of dried powder [2]: successfully reconstituted

Second part, led by results:

- IC50 ([1]; Homo sapiens, PANC-1, re-constituted curcumin-rubusoside solution, pH 7.2, 72 hours): ~5.5 µg/mL and ~14.9 µM
- Curcumin concentration (24 h): 0.34 mg/mL
- Reconstitution of dried powder [2]: successfully reconstituted
- Curcumin content of reconstituted solution ([2]; powder from 30% rubusoside solution): 1.87 % w/w
- Curcumin content of reconstituted solution ([2]; powder from 40% rubusoside solution): 2.03 % w/w
- Fold increase, enhanced vs standard process [4]: ~2 fold
- Curcumin in water solution ([4]; enhanced process): 302 µg/mL
- Curcumin in water solution ([4]; standard process): 156 µg/mL
- Curcumin in water solution ([5]; Stock, 40.0% w/v rubusoside): 6004 µg/mL
- Curcumin in water solution ([5]; stock diluted 1:1 with water, 20.0% rubusoside): 2985 µg/mL
- Curcumin in water solution ([5]; stock diluted 1:3 with water, 10.0% rubusoside): 1489 µg/mL
- Curcumin in water solution ([5]; stock diluted 1:7 with water, 5.0% rubusoside): 742 µg/mL
- Curcumin in water solution ([5]; stock diluted 1:15 with water, […] rubusoside): 358 µg/mL
- Curcumin in water solution ([5]; stock diluted 1:39 with water, 1.0% rubusoside): 135 µg/mL
Compound: COc1cc(/C=C/C(=O)CC(=O)/C=C/c2ccc(O)c(OC)c2)ccc1O [curcumin]
- Growth inhibition ([1]; 6.25 μg/mL curcumin, 72 hours): strong inhibition
- Curcumin concentration giving maximum growth inhibition ([1]; 72 hours): ≥ 12.5 µg/mL
- Growth inhibition ([1]; curcumin below 3.13 μg/mL, 72 hours): no inhibitory effect
- pIC50 [3]: 4.77

- Reconstitution of dried powder [2]: successfully reconstituted
Compound: CC(=O)[C@H]1CC[C@H]2[C@@H]3CCC4=CC(=O)CC[C@]4(C)[C@H]3CC[C@]12C [progesterone]

- inhibition at 2 h, 1 mg/mL (P-gp): 59%
- solubility ([6]; 25° C.): ~400 mg/mL (≈ 622 mM)
- solubility ([6]; 37° C.): ~800 mg/mL (≈ 1240 mM)
Compound: C=C1C[C@@]23CC[C@H]4[C@@](C)(CCC[C@@]4(C)C(=O)O[C@@H]4O[C@H](CO)[C@@H](O)[C@H](O)[C@H]4O)[C@@H]2CC[C@]1(O[C@@H]1O[C@H](CO)[C@@H](O)[C@H](O)[C@H]1O)C3 [Rubusoside, b-D-glucosyl ester of 13-O-b-D-glucosyl-steviol]

- Papp A→B at 2 h, 5 μM (in vitro): 1.4 ×10⁻⁶ cm/s
- Papp B→A at 2 h, 5 μM (in vitro): 18.7 ×10⁻⁶ cm/s
- efflux ratio at 2 h, 5 μM (in vitro): 13.7
Compound: C[C@H]1O[C@@H](O[C@H]2[C@@H](O)C[C@H](O[C@H]3[C@@H](O)C[C@H](O[C@H]4CC[C@@]5(C)[C@H](CC[C@@H]6[C@@H]5C[C@@H](O)[C@]5(C)[C@@H](C7=CC(=O)OC7)CC[C@]65O)C4)O[C@@H]3C)O[C@@H]2C)C[C@H](O)[C@@H]1O [Digoxin, digoxin]
